Results as given in US10793589B2, “Resorcinarene-based amphipathic compound and use thereof” (Industry-University Cooperation Foundation Hanyang …, priority 2016, dated 2020).
“Also recorded” adds a separate entry of the source.

How the values were obtained:
[1] = Critical micelle concentration by fluorescence dye diphenylhexatriene (DPH); assay type: physicochemical; settings: DPH fluorescence
Description: A method of measuring the CMC is not particularly limited and may be any method generally known in the art. For example, the CMC may be measured according to a fluorescence staining method using diphenylhexatriene (DPH).
(§1) Specifically, critical micelle concentrations (CMCs) were measured using a fluorescence dye, diphenylhexatriene (DPH), and hydrodynamic radii (Rh) of micelles formed of each compound (1.0 wt %) were measured by a dynamic light scattering (DLS) experiment. Measured results are shown in Table 1 in comparison with values of DDM as an existing amphipathic molecule (detergent).

[2] = target: T1, uric acid-xanthine/H+ symporter (UapA) (Emericella nidulans, UniProt Q07307, G411V); experiment: UapA structural/thermal stability (FSEC, CPM assay); assay type: biochemical, Aspergillus nidulans; settings: FIG. 5 (RGAs, FSEC), FIG. 6 (RMAs, CPM assay 40° C. 150 min, CMC+0.04 or CMC+0.2 wt %)
T1 construct: GFP; made in house; host or cells: Saccharomyces cerevisiae FGY217
Description: FIGS. 5A and 5B are a set of graphs illustrating a result of measuring the thermal stability of UapA in an aqueous solution caused by RGAs or DDM via fluorescence-detection size exclusion chromatography (FSEC):
FIGS. 6A and 6B are a set of graph illustrating a result of measuring thermal denaturation profile of UapA protein in DDM and novel RMAs (RMA-Cs and RMA-CEs) used at CMC+0.04 wt % (a) or CMC+0.2 wt % (b). Protein stability was assessed by CPM assay carried out at 40° C. for 150 min.
An experiment was carried out to measure the structural stability of a uric acid-xanthine/H^+ symporter (UapA) isolated from Aspergillus nidulans caused by RGAs and RMAs. The structural stability of UapA was measured using a sulfhydryl-specific fluorophore, N-[4-(7-diethylamino-4-methyl-3-coumarinyl)phenyl] maleimide (CPM).
Specifically, UapAG411V1-11 (hereinafter, referred to as “UapA”) was expressed in combination with GFP in Saccharomyces cerevisiae FGY217 strains and isolated into a sample buffer (20 mM Tris (pH 7.5), 150 mM NaCl, 0.03% DDM, and 0.6 mM xanthine) according to the method described in the paper (Mol. Membr. Biol. 2013, 30, 32-42) written by J. Leung et al. The membranes containing UapA were diluted to a final protein concentration of 2.8 mg ml^−1 in PBS (pH 7.4) supplemented with either 1% DDM or 1% RMAs or RGAs. […]

[3] = Hydrodynamic radius and size distribution of micelles by dynamic light scattering (DLS); assay type: physicochemical; settings: compound 1.0 wt %
Description: A method of measuring the radius of a micelle is not particularly limited and may be any method generally known in the art. For example, the radius may be measured by a dynamic light scattering (DLS) experiment.
as §1
Meanwhile, size distributions of the micelles formed by RGAs and RMAs were measured using DLS.

[4] = target: T2, human β2 adrenergic receptor (β2AR) (Homo sapiens, UniProt P07550); experiment: β2AR stability, [3H]-dihydroalprenolol (DHA) ligand binding assay; assay type: biochemical; settings: for maintaining the ligand binding characteristic of the receptor compared to DDM: 0 hour, CMC+0.2 wt %, [3H]-DHA
T2 construct: made in house
Description: (§2) FIGS. 10A and 10B illustrate a result of measuring the effect of RGAs on the stability of β2AR after (a) 0 hour and (b) over time. Protein-ligand binding characteristics were measured via ligand binding assay using [^3H]-dihydroalprenolol (DHA), and the measurement was carried out by sampling a protein sample at regular intervals during 2 days of storage at room temperature.
as §2, with “12A” for “10A”, “12B” for “10B”, “RMAs” for “RGAs”
An experiment was carried out to measure the structural stability of a human (32 adrenergic receptor (β2AR) and a G protein-coupled receptor (GPCR) caused by RGAs and RMAs. That is, a receptor purified with DDM was diluted with a buffer solution containing only each RGA and RMA without cholesteryl hemisuccinate (CHS) or a buffer solution containing CHS and DDM. The final concentration of the compound was CMC+0.2 wt %, and the ligand binding characteristic of the receptor was measured using [^3H]-dihydroalprenolol ([^3H]-DHA) binding.
Specifically, radioligand binding assay was carried out using the following method. β2AR was purified using 0.1% DDM according to the method described in a paper (Science, 2007, 318, 1266-1273.) written by D. M. Rosenbaum et al. and finally concentrated to about 10 mg/ml (about 200 μM). The β2AR purified with DDM was used to prepare a master binding mixture containing 10 nM [^3H]-dihydroalprenolol (DHA) supplemented with 0.5 mg/ml BSA in a 0.2% amphipathic compound (DDM, RGAs or RMAs). The receptor purified with DDM, RGAs or RMAs was incubated with 10 nM [^3H]-DHA at room temperature for 30 minutes. The mixture was loaded into a G-50 column, the flow-through was collected with 1 ml of a binding buffer (20 mM HEPES pH 7.5, 100 mM NaCl, supplemented with 0.5 mg/ml BSA and 20×CMC individual amphipathic compound, and the G-50 column was further filled with 15 ml of a scintillation fluid. Receptor-bound [^3H]-DHA was measured with a scintillation counter (Beckman). The binding capacity of [^3H]-DHA was measured and shown in a column graph. Each experiment was performed in triplicate.

[5] = target: T3, Salmonella typhimurium melibiose permease (MelB) (Salmonella typhimurium, UniProt P30878); experiment: MelB extraction and solubility after 90 min incubation, SDS-PAGE and western blotting; assay type: biochemical; settings: 55° C., 1.5 wt %
T3 construct: made in house; host or cells: E. coli DW2 (melB and lacZY deleted), plasmid pK95AHB/WT MelBSt/CH10
Description: FIGS. 9A and 9B illustrate a result of measuring the amount of a MelB protein dissolved in an aqueous solution after a MelB protein was extracted at four temperatures (0, 45, 55, and 65) using RGAs or DDM at a concentration of 1.5 wt % and then incubated at the same temperatures for 90 minutes:
RGAs were selected, and an experiment was carried out to measure the structural stability of a Salmonella typhimurium melibiose permease (MelB) caused by RGAs. A MelB protein was extracted from a membrane using RGAs or DDM, and the amount and structure of the protein thus extracted was then analyzed by performing SDS-PAGE and western blotting. In this case, the concentration of the used amphipathic compound was 1.5 wt %. The protein was extracted at four temperatures (0, 45, 55, and 65° C.) and then incubated at the same temperatures for 90 minutes. Subsequently, two kinds of performance of the compound, that is, protein extraction efficiency and protein stability were evaluated at the same time by measuring the amount of a protein which remained dissolved in an aqueous solution. The amount of a protein which was extracted and stabilized by an individual amphipathic molecule was expressed as a relative value (%) with respect to the amount of the entire protein included in a membrane sample not treated with an amphipathic molecule.
Specifically, a C-terminal 10-His-tagged Salmonella typhimurium melibiose permease (MelBSt) was expressed in E. coli DW2 cells (melB and lacZY) using plasmid pK95AHB/WT MelBSt/CH10. Cells were grown and membranes were prepared according to the method described in a paper (Nat. Commun. 2014, 5, 3009) written by A. S. Ethayathulla et al. A protein assay was carried out with a Micro BCA kit (Thermo Scientific, Rockford, Ill.). RGAs and DDM were evaluated to measure the stability of MelBSt according to the protocol described in a paper (Nat. Methods 2010, 7, 1003-1008) written by P. S. Chae et al. The membrane sample (final protein concentration of 10 mg/mL) containing MelBSt was incubated in a solubilization buffer containing 1.5% (w/v) DDM or RGAs (20 mM sodium phosphate, pH 7.5, 200 mM NaCl, 10% glycerol, and 20 mM melibiose) at four temperatures (0, 45, 55, and 65° C.) for 90 minutes. An insoluble material was removed by ultracentrifugation at 355,590 g at 4° C. for 45 minutes using a Beckman Optima™ MAX ultracentrifuge equipped with a TLA-100 rotor. A dissolved portion was separated by SDS-16% PAGE, and immunoblotting was then performed using a Penta-His-HRP antibody (Qiagen, Germantown, Md.). A membrane fraction containing 20 μg of protein without treatment was used to illustrate the overall MelB, and the treated samples were loaded into each well in equal volume. MelBSt was measured using the SuperSignal West Pico Chemiluminescent substrate by ImageQuant LAS 4000 Biomolecular Imager (GE Healthcare Life Sciences).

[6] = target: T2, human β2 adrenergic receptor (β2AR); experiment: Size exclusion chromatography (SEC) of β2AR receptor-detergent complex; settings: 20×CMC detergent
Description: FIG. 11 illustrates a result of evaluating the size characteristic of a (32AR protein-ligand binding complex formed of RGA-C11, RGA-C13, or DDM via a size exclusion chromatography (SEC) test.
In addition, a size exclusion chromatography (SEC) test was conducted. Specifically, β2AR purified with 0.1% DDM was loaded on a M1 Flag column in the presence of 2 mM CaCl2, and the column was washed with a DDM, RGA-C11 or RGA-C13 detergent buffer (20 mM HEPES pH 7.5, 100 mM NaCl, 0.2% individual amphipathic compound). The receptor was eluted with 20×CMC DDM, RGA-C11, or RGA-C13 with 5 mM EDTA and 0.2 mg/ml free Flag peptide. The eluate was further added to a Superdex-200 10/300 GL column (GE Healthcare) at 0.5 ml/min, and UV absorbance at 280 nm was recorded. The running buffer contained 20 mM HEPES pH 7.5, 100 mM NaCl, 20×CMC individual detergent (DDM, RGA-C11 and RGA-C13).

T2 sequence (P07550 whole entry): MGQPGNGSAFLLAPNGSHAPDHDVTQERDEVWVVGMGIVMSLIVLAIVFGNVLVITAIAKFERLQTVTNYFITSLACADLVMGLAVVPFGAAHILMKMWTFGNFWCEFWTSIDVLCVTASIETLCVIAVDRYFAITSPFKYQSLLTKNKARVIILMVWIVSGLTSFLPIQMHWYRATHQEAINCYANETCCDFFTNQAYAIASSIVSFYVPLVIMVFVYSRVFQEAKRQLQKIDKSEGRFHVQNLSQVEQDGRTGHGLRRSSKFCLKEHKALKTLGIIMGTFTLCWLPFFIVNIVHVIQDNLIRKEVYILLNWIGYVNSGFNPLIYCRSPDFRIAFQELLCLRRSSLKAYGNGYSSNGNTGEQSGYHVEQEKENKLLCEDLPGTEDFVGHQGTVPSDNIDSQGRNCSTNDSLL
T3 sequence (P30878 whole entry): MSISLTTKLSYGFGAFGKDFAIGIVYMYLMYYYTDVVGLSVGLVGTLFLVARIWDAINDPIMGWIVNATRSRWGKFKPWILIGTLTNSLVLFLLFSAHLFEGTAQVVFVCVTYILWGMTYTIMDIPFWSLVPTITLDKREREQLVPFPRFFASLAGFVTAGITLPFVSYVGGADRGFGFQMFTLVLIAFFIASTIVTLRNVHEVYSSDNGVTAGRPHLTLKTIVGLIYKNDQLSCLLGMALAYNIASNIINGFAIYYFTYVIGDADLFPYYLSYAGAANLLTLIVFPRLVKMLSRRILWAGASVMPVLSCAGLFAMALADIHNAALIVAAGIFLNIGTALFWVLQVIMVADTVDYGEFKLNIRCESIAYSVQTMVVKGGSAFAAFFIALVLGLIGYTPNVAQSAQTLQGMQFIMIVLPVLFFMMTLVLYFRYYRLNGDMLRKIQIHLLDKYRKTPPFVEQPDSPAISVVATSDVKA
T1 sequence (Q07307 12-574 G411V): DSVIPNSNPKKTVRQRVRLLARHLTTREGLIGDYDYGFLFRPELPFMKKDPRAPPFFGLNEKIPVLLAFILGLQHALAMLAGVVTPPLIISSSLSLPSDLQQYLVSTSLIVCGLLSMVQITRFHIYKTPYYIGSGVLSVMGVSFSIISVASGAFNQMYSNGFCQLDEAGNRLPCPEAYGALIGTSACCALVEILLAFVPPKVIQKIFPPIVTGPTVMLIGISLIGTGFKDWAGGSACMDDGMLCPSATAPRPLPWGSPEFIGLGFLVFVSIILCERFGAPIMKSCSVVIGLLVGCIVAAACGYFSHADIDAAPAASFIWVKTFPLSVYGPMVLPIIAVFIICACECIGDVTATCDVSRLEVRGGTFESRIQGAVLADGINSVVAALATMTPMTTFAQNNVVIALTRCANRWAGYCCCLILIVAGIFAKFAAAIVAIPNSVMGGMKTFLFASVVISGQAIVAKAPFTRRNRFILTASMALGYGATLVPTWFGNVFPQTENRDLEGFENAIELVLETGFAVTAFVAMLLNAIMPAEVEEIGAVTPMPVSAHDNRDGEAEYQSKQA

Compound	CMC [1] [µM]	CMC (wt %) [1] [wt %]	ability to maintain the UapA protein in a folded state compared to DDM [2]	Rh (nm), hydrodynamic radius of micelles [3] [nm]	maintaining the ligand binding characteristic of the receptor compared to DDM [4]	MelB protein extraction efficiency and solubility [5]	size of receptor-detergent complex [6]	ability to maintain the ligand binding of the receptor over time compared to DDM ([4]; 2 days at room temperature, early stage (0 to 12 h))
CCCCCCCC[C@H]1c2cc(c(OCCO[C@@H]3OC(CO)[C@@H](O)[C@H](O)C3O)cc2OCCO[C@@H]2OC(CO)[C@@H](O)[C@H](O)C2O)[C@H](CCCCCCCC)c2cc(c(OCCO[C@@H]3OC(CO)[C@@H](O)[C@H](O)C3O)cc2OCCO[C@@H]2OC(CO)[C@@H](O)[C@H](O)C2O)[C@@H](CCCCCCCC)c2cc(c(OCCO[C@@H]3OC(CO)[C@@H](O)[C@H](O)C3O)cc2OCCO[C@@H]2OC(CO)[C@@H](O)[C@H](O)C2O)[C@@H](CCCCCCCC)c2cc1c(OCCO[C@@H]1OC(CO)[C@@H](O)[C@H](O)C1O)cc2OCCO[C@@H]1OC(CO)[C@@H](O)[C@H](O)C1O (some centres unmarked) [RGA-C9]	~7	~0.018	highest effect	2.9 ± 0.1	inferior to DDM	–	–	–
CCCCCCCCCC[C@H]1c2cc(c(OCCO[C@@H]3OC(CO)[C@@H](O)[C@H](O)C3O)cc2OCCO[C@@H]2OC(CO)[C@@H](O)[C@H](O)C2O)[C@H](CCCCCCCCCC)c2cc(c(OCCO[C@@H]3OC(CO)[C@@H](O)[C@H](O)C3O)cc2OCCO[C@@H]2OC(CO)[C@@H](O)[C@H](O)C2O)[C@@H](CCCCCCCCCC)c2cc(c(OCCO[C@@H]3OC(CO)[C@@H](O)[C@H](O)C3O)cc2OCCO[C@@H]2OC(CO)[C@@H](O)[C@H](O)C2O)[C@@H](CCCCCCCCCC)c2cc1c(OCCO[C@@H]1OC(CO)[C@@H](O)[C@H](O)C1O)cc2OCCO[C@@H]1OC(CO)[C@@H](O)[C@H](O)C1O (some centres unmarked) [RGA-C11]	–	~0.0081	–	6.8 ± 0.2	superior to DDM	maintained MelB solubility better than DDM; also recorded: higher protein extraction efficiency than DDM	significantly smaller than that formed of DDM	superior ability to maintain the ligand binding of the receptor compared to DDM
